Reference: patent US8461328B2, “Tricyclic heterocyclic compounds, compositions and methods of use thereof” (Genentech, Inc., priority 2010, dated 2013)

How the values were obtained:
Assay type in all cases: biochemical
TYK2 = target: T1, TYK2 (Homo sapiens, UniProt P29597); experiment: TYK2 inhibition (Table 4)
T1 construct: made in house; host or cells: SF9 insect cells (baculovirus)
T1 sequence (P29597 873-1187): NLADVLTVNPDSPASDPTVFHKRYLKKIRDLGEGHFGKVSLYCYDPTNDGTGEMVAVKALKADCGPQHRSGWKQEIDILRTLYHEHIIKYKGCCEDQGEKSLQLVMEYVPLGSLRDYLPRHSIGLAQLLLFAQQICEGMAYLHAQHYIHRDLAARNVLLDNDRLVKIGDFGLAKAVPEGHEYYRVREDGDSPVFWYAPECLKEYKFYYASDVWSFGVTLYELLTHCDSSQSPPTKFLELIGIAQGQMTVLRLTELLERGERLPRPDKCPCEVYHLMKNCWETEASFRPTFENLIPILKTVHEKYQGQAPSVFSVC

JAK3 = target: T2, JAK3 (Homo sapiens, UniProt P52333); experiment: JAK3 inhibition (Table 4); conditions: read-out: JAK3 Ki
T2 construct: made in house; host or cells: SF9 insect cells (baculovirus)
T2 sequence (P52333 783-1124): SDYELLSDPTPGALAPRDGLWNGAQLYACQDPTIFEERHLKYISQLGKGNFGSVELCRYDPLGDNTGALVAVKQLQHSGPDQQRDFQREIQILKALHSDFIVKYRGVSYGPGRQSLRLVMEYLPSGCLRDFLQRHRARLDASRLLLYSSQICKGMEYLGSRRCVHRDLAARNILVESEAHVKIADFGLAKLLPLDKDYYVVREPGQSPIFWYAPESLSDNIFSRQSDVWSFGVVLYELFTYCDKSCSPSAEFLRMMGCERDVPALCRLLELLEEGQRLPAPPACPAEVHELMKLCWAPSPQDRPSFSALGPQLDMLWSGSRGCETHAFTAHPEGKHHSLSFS

JAK2 = target: T3, JAK2 (Homo sapiens, UniProt O60674); experiment: JAK2 inhibition (Table 4); conditions: read-out: JAK2 Ki
T3 construct: made in house; host or cells: SF9 insect cells (baculovirus)
T3 sequence (O60674 812-1132): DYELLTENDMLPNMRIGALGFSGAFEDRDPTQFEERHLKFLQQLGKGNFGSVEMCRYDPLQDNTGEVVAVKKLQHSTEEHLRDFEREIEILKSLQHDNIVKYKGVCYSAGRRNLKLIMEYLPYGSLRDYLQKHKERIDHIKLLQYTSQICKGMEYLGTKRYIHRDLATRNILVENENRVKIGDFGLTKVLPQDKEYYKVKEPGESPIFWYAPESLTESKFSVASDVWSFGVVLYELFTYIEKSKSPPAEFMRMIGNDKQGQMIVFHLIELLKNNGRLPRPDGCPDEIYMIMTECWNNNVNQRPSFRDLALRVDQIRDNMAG

JAK1 = target: T4, JAK1 (Homo sapiens, UniProt P23458); experiment: JAK1 inhibition (Table 4); conditions: read-out: JAK1 Ki
T4 construct: made in house; host or cells: SF9 insect cells (baculovirus)
T4 sequence (P23458 852-1154): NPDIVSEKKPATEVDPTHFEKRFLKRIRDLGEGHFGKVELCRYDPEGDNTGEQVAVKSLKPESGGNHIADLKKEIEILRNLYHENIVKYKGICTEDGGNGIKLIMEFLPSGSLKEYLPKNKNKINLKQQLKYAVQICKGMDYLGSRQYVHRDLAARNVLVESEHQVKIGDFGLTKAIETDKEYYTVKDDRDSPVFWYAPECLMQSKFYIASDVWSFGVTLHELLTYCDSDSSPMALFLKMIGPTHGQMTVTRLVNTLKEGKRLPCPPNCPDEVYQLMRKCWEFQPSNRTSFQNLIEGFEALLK

Row | Ki (TYK2) [nM] | Ki (JAK3) [nM] | Ki (JAK2) [nM] | Ki (JAK1) [nM] | Molecule
1 | 24.5 | 14.5 | 17.9 | 7.29 | OC1CCCC(n2cnc3cnc4[nH]ccc4c32)C1 (single isomer, unassigned) [Example 561, 3-(6H-1,3,5,6-Tetraaza-as-indacen-1-yl)-cyclohexanol]
2 | 4.88 | 5.51 | 2.65 | 0.89 | Cc1nc2cnc3[nH]ccc3c2n1C1CCN(CC(F)F)CC1 [Example 762, 1-[1-(2,2-Difluoro-ethyl)-piperidin-4-yl]-2-methyl-1,6-dihydro-1,3,5,6-tetraaza-as-indacene]
3 | 716 | 844 | 792 | 67.1 | C[C@@H](O)c1nc2cnc3[nH]ccc3c2n1[C@@H]1CCCN(C(=O)C2CCCC2)C1 [Example 788, Cyclopentyl-{(R)-3-[2-((R)-1-hydroxy-ethyl)-6H-1,3,5,6-tetraaza-as-indacen-1-yl]-piperidin-1-yl}-methanone]
4 | 1410 | 187 | 396 | 156 | CC(O)c1nc2cnc3[nH]ccc3c2n1C1CCN(C(=O)N(C)C)CC1 (racemic) [Example 528, 4-[2-(1-Hydroxy-ethyl)-6H-1,3,5,6-tetraaza-as-indacen-1-yl]-piperidine-1-carboxylic acid dimethylamide]
5 | 94.6 | 37.4 | 5.78 | 2.9 | CC(C)(C)OC(=O)NC1CC(n2cnc3cnc4[nH]ccc4c32)C1 (stereo not shown) [Example 317, [3-(6H-1,3,5,6-Tetraaza-as-indacen-1-yl)-cyclobutyl]-carbamic acid tert-butyl ester]
6 | 420 | 121 | 123 | 130 | CC(=O)NC1CCCC(n2cnc3cnc4[nH]ccc4c32)C1 (single isomer, unassigned) [Example 479, N-[3-(6H-1,3,5,6-Tetraaza-as-indacen-1-yl)-cyclohexyl]-acetamide]
7 | 2010 | 130 | 494 | 18 | CCn1ncc(CN2CCC(n3c([C@@H](C)O)nc4cnc5[nH]ccc5c43)CC2)c1C [Example 900, (R)-1-{1-[1-(1-Ethyl-5-methyl-1H-pyrazol-4-ylmethyl)-piperidin-4-yl]-1,6-dihydro-1,3,5,6-tetraaza-as-indacen-2-yl}-ethanol]
8 | 22.3 | 147 | 38.7 | 11.9 | C[C@@H](O)c1nc2cnc3[nH]ccc3c2n1[C@H]1CC[C@H](N(C)CC(F)(F)F)CC1 [Example 617, Trans (R)-1-(1-{4-[methyl-(2,2,2-trifluoro-ethyl)-amino]-cyclohexyl}-1,6-dihydro-1,2,3,5,6-tetraaza-as-indacen-2-yl)-ethanol]
9 | 1050 | 626 | 415 | 47.6 | CC1CNCCC1n1cnc2cnc3[nH]ccc3c21 (racemic) [Example 312, 1-(3-Methyl-piperidin-4-yl)-1,6-dihydro-1,3,5,6-tetraaza-as-indacene]
10 | 71.7 | 66.4 | 13.7 | 9.45 | N#CCC(=O)N1CCC[C@@H](n2c(C(F)(F)F)nc3cnc4[nH]ccc4c32)C1 [Example 302, 3-Oxo-3-[(R)-3-(2-trifluoromethyl-6H-1,3,5,6-tetraaza-as-indacen-1-yl)-piperidin-1-yl]-propionitrile]
11 | 58.5 | 112 | 99 | 63.8 | CC(O)c1nc2cnc3[nH]ccc3c2n1C1CCCN(CCF)C1 [Example 664, (R)-1-{1-[(R)-1-(2-Fluoro-ethyl)-piperidin-3-yl]-1,6-dihydro-1,2,3,5,6-tetraaza-as-indacen-2-yl}-ethanol]
12 | 50.6 | 45 | 34.3 | 6.85 | O[C@@H]1CC[C@H](n2cnc3cnc4[nH]ccc4c32)C1 [Example 710, (1R,3S)-3-(6H-1,2,3,5,6-Tetraaza-as-indacen-1-yl)-cyclopentanol]
13 | 85.6 | 302 | 16.7 | 11.2 | CCN1CC[C@@H](n2cnc3cnc4[nH]ccc4c32)[C@@H](F)C1 [Example 523, 1-((3S,4R)-1-Ethyl-3-fluoro-piperidin-4-yl)-1,6-dihydro-1,3,5,6-tetraaza-as-indacene]
14 | 3160 | 3520 | 382 | 251 | CC(C)(C)OC(=O)N1CCC[C@H]1C(=O)N1CCC(n2cnc3cnc4[nH]ccc4c32)CC1 [Example 144, (S)-2-[4-(6H-1,2,3,5,6-Tetraaza-as-indacen-1-yl)-piperidine-1-carbonyl]-pyrrolidine-1-carboxylic acid tert-butyl ester]
15 | 112 | 455 | 65.2 | 28.8 | COC(=O)N(C)[C@H]1CC[C@H](n2c(CO)nc3cnc4[nH]ccc4c32)CC1 [Example 606, Trans[4-(2-hydroxymethyl-6H-1,2,3,5,6-tetraaza-as-indacen-1-yl)-cyclohexyl]-methyl-carbamic acid methyl ester]
16 | 106 | 169 | 7.47 | 10.2 | CN([C@H]1CC[C@H](n2cnc3cnc4[nH]ccc4c32)CC1)S(=O)(=O)C1CC1 [Example 341, Cyclopropanesulfonic acid methyl-[4-(6H-1,3,5,6-tetraaza-as-indacen1-yl)-cyclohexyl]-amide]
17 | 44.4 | 56.3 | 24 | 6.03 | O[C@H]1CC[C@@H](n2cnc3cnc4[nH]ccc4c32)C1 [Example 709, (1S,3R)-3-(6H-1,2,3,5,6-Tetraaza-as-indacen-1-yl)-cyclopentanol]
18 | 3230 | 27.7 | 194 | 41 | CN(C(=O)Cc1nc2cnc3[nH]ccc3c2n1C1CCN(Cc2ccccc2)CC1)C1CCCC1 [Example 101, 2-[1-(1-Benzyl-piperidin-4-yl)-1,6-dihydro-1,3,5,6-tetraaza-as-indacen-2-yl]-N-cyclopentyl-N-methyl-acetamide]
19 | 389 | 405 | 694 | 57.3 | Cc1cc(Cc2nc3cnc4[nH]ccc4c3n2C2CCOCC2)on1 [Example 472, 2-(3-Methyl-isoxazol-5-ylmethyl)-1-(tetrahydro-pyran-4-yl)-1,6-dihydro-1,3,5,6-tetraaza-as-indacene]
20 | 9.23 | 50.8 | 3.85 | 2.01 | OC1(C2CC2)CCC(n2cnc3cnc4[nH]ccc4c32)CC1 (stereo not drawn) [Example 996, Cis-1-Cyclopropyl-4-(6H-1,3,5,6-tetraaza-as-indacen-1-yl)-cyclohexanol]
21 | 568 | 1130 | 528 | 103 | Cc1nc2cnc3[nH]ccc3c2n1C1(C)CCN(C(=O)CC#N)CC1 [Example 741, 3-[4-Methyl-4-(2-methyl-6H-1,3,5,6-tetraaza-as-indacen-1-yl)-piperidin-1-yl]-3-oxo-propionitrile]
22 | 630 | 300 | 58.3 | 64.4 | Cc1nc2cnc3[nH]ccc3c2n1C1CCC2CC(=O)NC2C1 (single isomer, unassigned) [Example 112a, 6-(2-Methyl-6H-1,2,3,5,6-tetraaza-as-indacen-1-yl)-octahydro-indol-2-one]
23 | 141 | 242 | 82.7 | 40.7 | CNc1nc2cnc3[nH]ccc3c2n1C1CCN(S(C)(=O)=O)CC1 [Example 774, [1-(1-Methanesulfonyl-piperidin-4-yl) 1,6-dihydro-1,3,5,6-tetraaza-as-indacen-1-yl]-methyl-amine]
24 | 56.7 | 6.89 | 21.4 | 1.72 | C[C@@H](O)c1nc2cnc3[nH]ccc3c2n1C1CCN(Cc2ccn[nH]2)CC1 [Example 896, (R)-1-{1-[1-(2H-Pyrazol-3-ylmethyl)-piperidin-4-yl]-1,6-dihydro-1,3,5,6-tetraaza-as-indacen-2-yl}-ethanol]
25 | 21.2 | 4.23 | 4.58 | 1.77 | CCN1CCC(n2c(C)nc3cnc4[nH]ccc4c32)C(F)(F)C1 (racemic) [Example 531, 1-(1-Ethyl-3,3-difluoro-piperidin-4-yl)-2-methyl-1,6-dihydro-1,3,5,6-tetraaza-as-indacene]
26 | 10.3 | 189 | 2.25 | 1.14 | N#Cc1ccc(S(=O)(=O)N2CCC(n3cnc4cnc5[nH]ccc5c43)CC2)c(Cl)c1 [Example 446, 3-Chloro-4-[4-(6H-1,3,5,6-tetraaza-as-indacen-1-yl)-piperidine-1-sulfonyl]-benzonitrile]
27 | 24.7 | 4.97 | 19.4 | 1.95 | CCN1CCC(n2c([C@@H](C)O)nc3cnc4[nH]ccc4c32)C(F)(F)C1 (single isomer, unassigned) [Example 880]

Row | Molecule | Ki (TYK2) [nM] | Ki (JAK3) [nM] | Ki (JAK2) [nM] | Ki (JAK1) [nM]
28 | (R)-1-{1-[1-(3,5-Dimethyl-1H-pyrazol-4-ylmethyl)-piperidin-4-yl]-1,6-dihydro-1,3,5,6-tetraaza-as-indacen-2-yl}-ethanol [Example 904] | 2650 | 1040 | 1340 | 211
